The text below walks through data of the C3SDB collision cross section collection.

“And” between values parts separate entries of the source, which are not always exact repeats. Identical values can stand only once. Counter-ions that a name gives are not always drawn.

The conditions of series [1]: instrument: DT, single field, calibrated with ESI Low Concentration Tuning Mix (Agilent).
The conditions of series [2]: instrument: TW, calibrated with polyalanine and drug standards.

Turning to `CC(=O)OCC[N+](C)(C)C` [ACETYLCHOLINE], the “collision cross section (N2)” value in series [1] ([M+]+) stood at 129.5 Å²; in series [2] ([M]+), 130.1 Å².
For `Nc1ncnc2nc[nH]c12` [ADENINE], the “collision cross section (N2)” value is 124.9 Å² in series [1] ([M+H]+); 137 Å² and 137.4 Å² in series [1] ([M+Na]+); 119.6 Å² and 119.8 Å² in series [1] ([M-H]-); 122.4 Å² in series [2] ([M+H]+).
With `Nc1ncnc2c1ncn2[C@@H]1O[C@H](CO)[C@@H](O)[C@H]1O` [ADENOSINE], the “collision cross section (N2)” value in series [1] ([M+H]+) is 155.6 Å² and 161.4 Å²; in series [1] ([M+Na]+), 165.5 Å²; in series [1] ([M-H]-), 157.6 Å²; in series [2] ([M+H]+), 156.9 Å².
In the case of `O=C(O)CCCC[C@@H]1SC[C@@H]2NC(=O)N[C@@H]21` [BIOTIN], the “collision cross section (N2)” value came out at 149.7 Å² in series [1] ([M+H]+); 160.1 Å² in series [1] ([M+K]+); 152.9 Å² in series [1] ([M+Na-2H]-); 159.9 Å² in series [1] ([M+Na]+); 148 Å² in series [2] ([M+H]+).
As to `C[C@]12CCC(=O)C=C1CC[C@@H]1[C@@H]2C(=O)C[C@@]2(C)[C@H]1CC[C@]2(O)C(=O)CO` [CORTISONE], the “collision cross section (N2)” value came out at 188.3 Å² in series [1] ([M+H]+), 213.2 Å² in series [1] ([M+Na]+), 191.4 Å² in series [1] ([M-H]-) and 184.4 Å² in series [2] ([M+H]+).
For the compound `N[C@@H](CSSC[C@H](N)C(=O)O)C(=O)O` [CYSTINE], the “collision cross section (N2)” value in series [1] ([M+H]+) worked out at 149.4 Å²; in series [1] ([M+Na-2H]-) it was 147.3 Å²; in series [1] ([M+Na]+) it was 151.2 Å²; in series [1] ([M-H]-), 143 Å²; in series [2] ([M+H]+), 148.1 Å².
With `Nc1ccn([C@@H]2O[C@H](CO)[C@@H](O)[C@H]2O)c(=O)n1` [CYTIDINE], the “collision cross section (N2)” value in series [1] ([M+H]+) was 151 Å²; in series [1] ([M+Na]+), 159.7 Å²; in series [1] ([M-H]-), 149.8 Å²; in series [2] ([M+H]+), 151.1 Å².
Take `Nc1ncnc2c1ncn2[C@H]1C[C@H](O)[C@@H](CO)O1` [DEOXYADENOSINE]: the “collision cross section (N2)” value in series [1] ([M+H]+) was 152.3 Å² and 158.1 Å²; in series [1] ([M+Na]+) it was 161.6 Å²; in series [1] ([M-H]-) it was 155.3 Å²; in series [2] ([M+H]+), 154.6 Å².
In the case of `O=C(O)CP(=O)(O)O` [PHOSPHONOACETATE], in series [1] ([M+Na]+), the “collision cross section (N2)” value is 134.5 Å².
On to `CC(=O)[C@H]1CC[C@H]2[C@@H]3CC=C4C[C@@H](OS(=O)(=O)O)CC[C@]4(C)[C@H]3CC[C@]12C` [PREGNENOLONE SULFATE], for which, in series [1] ([M-H]-), the “collision cross section (N2)” value stood at 206.2 Å².
With `O=C(O)[C@@H]1CCCN1` [PROLINE], the “collision cross section (N2)” value was 125.1 Å² in series [1] ([M+H]+) and 124.5 Å² in series [1] ([M-H]-).
As to `C=Cc1c(C)c2cc3[nH]c(cc4nc(cc5nc(cc1[nH]2)C(C)=C5CCC(=O)O)C(CCC(=O)O)=C4C)c(C)c3C=C` [PROTOPORPHYRIN], in series [1] ([M+H]+), the “collision cross section (N2)” value is 241.3 Å².
As for `OCC1(O)OC[C@@H](O)[C@@H](O)[C@H]1O` (stereo partly drawn) [PSICOSE], the “collision cross section (N2)” value in series [1] ([M+Na]+) stood at 137.6 Å².
As to `Nc1nc(=O)c2nccnc2[nH]1` [PTERIN], the “collision cross section (N2)” value worked out at 128.6 Å² in series [1] ([M+H]+), 143.4 Å² in series [1] ([M+Na]+) and 128.1 Å² in series [1] ([M-H]-).
As to `Cc1ncc(COP(=O)(O)O)c(C=O)c1O` [PYRIDOXAL-PHOSPHATE], the “collision cross section (N2)” value in series [1] ([M+H]+) is given as 151.3 Å²; in series [1] ([M+Na-2H]-), 153.2 Å²; in series [1] ([M+Na]+) it was 160.8 Å²; in series [1] ([M-H]-) it was 149.4 Å².
In the case of `O=C(O)C1(O)C[C@@H](O)C(O)[C@H](O)C1` (stereo partly drawn) [QUINATE], the “collision cross section (N2)” value came to 151.7 Å² in series [1] ([M+Na]+) and 134.5 Å² in series [1] ([M-H]-).
Take `CC(=O)Oc1cccc(O)c1` [RESORCINOL MONOACETATE]: the “collision cross section (N2)” value in series [1] ([M-H]-) amounted to 126.1 Å².
Regarding `OC[C@@H](O)C(O)[C@@H](O)CO` (stereo partly drawn) [RIBITOL], the “collision cross section (N2)” value was determined as 136.2 Å² in series [1] ([M+Na]+) and 125.8 Å² in series [1] ([M-H]-).
`NC(CSCC(=O)O)C(=O)O` (stereo not drawn) [S-CARBOXYMETHYLCYSTEINE]: the “collision cross section (N2)” value in series [1] ([M+H]+) was 137.1 Å²; in series [1] ([M+Na-2H]-), 136.7 Å²; in series [1] ([M+Na]+), 138.2 Å²; in series [1] ([M-H]-) it was 130 Å².
For `O=C(O)c1ccccc1[O-]` [SALICYLATE], the “collision cross section (N2)” value in series [1] ([M-H]-) worked out at 119.8 Å².
As to `NCCCNCCCCNCCCN` [SPERMINE], the “collision cross section (N2)” value in series [1] ([M+H]+) is 148.6 Å²; in series [1] ([M+Na]+), 151.5 Å².
For `CCCCCCCCCCCCCCC[C@@H](O)[C@@H](N)CO` [SPHINGANINE], in that order: 189 Å² and 191.1 Å².
In the case of `Cn1cnc2c1c(=O)[nH]c(=O)n2C` [THEOBROMINE], in series [1] ([M+H]+), the “collision cross section (N2)” value was 131.2 Å² and 136.9 Å².
Take `C[C@@H](O)[C@H](N)C(=O)O` [THREONINE]: the figures for the “collision cross section (N2)” value in series [1] ([M+H]+) and in series [1] ([M-H]-) were 126.7 Å² and 120.2 Å², respectively.
Turning to `O=C(O)[C@@H]1C[C@@H](O)CN1` [TRANS-4-HYDROXY-L-PROLINE], the “collision cross section (N2)” value is 127.9 Å² in series [1] ([M+H]+); 139.3 Å² in series [1] ([M+Na]+); 126.2 Å² and 126.3 Å² in series [1] ([M-H]-).
As to `O=C/C=C/c1ccccc1` [TRANS-CINNAMALDEHYDE], in series [1] ([M+H]+), the “collision cross section (N2)” value is on record as 121.5 Å².
Take `O=C(O)c1c[nH]c(=O)[nH]c1=O` [URACIL 5-CARBOXYLATE]: the “collision cross section (N2)” value was 139.8 Å² in series [1] ([M+Na]+) and 118.9 Å² in series [1] ([M-H]-).
Take `O=c1[nH]c(=O)c2[nH]c(=O)[nH]c2[nH]1` [URATE]: the “collision cross section (N2)” value in series [1] ([M+H]+) came out at 130.7 Å².
For `O=c1ccn([C@@H]2O[C@H](COP(=O)(O)OP(=O)(O)OP(=O)(O)O)[C@@H](O)[C@H]2O)c(=O)[nH]1` [URIDINE TRIPHOSPHATE], the “collision cross section (N2)” value in series [1] ([M+H]+) was 187 Å²; in series [1] ([M+Na-2H]-), 190.2 Å²; in series [1] ([M+Na]+), 188.8 Å²; in series [1] ([M-H]-) it was 180.1 Å² and 180.2 Å².
`O=c1ccn([C@@H]2O[C@H](CO)[C@@H](O)[C@H]2O)c(=O)[nH]1` [URIDINE]: the figures for the “collision cross section (N2)” value in series [1] ([M+Na]+) and in series [1] ([M-H]-) were 160.9 Å² and 150.7 Å², respectively.
In the case of `O=c1[nH]c(=O)c2[nH]cnc2[nH]1` [XANTHINE], the entries for the “collision cross section (N2)” value in series [1] ([M+H]+) and in series [1] ([M-H]-) were 129.9 Å² and 120.6 Å², respectively.
In the case of `O=C(O)c1cc(=O)c2cccc(O)c2[nH]1` [XANTHURENATE], the figures for the “collision cross section (N2)” value in series [1] ([M+H]+), in series [1] ([M+Na]+) and in series [1] ([M-H]-) were 140.4 Å², 147.7 Å² and 134.3 Å², respectively.
Take `OC[C@@H](O)C(O)[C@@H](O)CO` (stereo partly drawn) [XYLITOL]: the “collision cross section (N2)” value in series [1] ([M+Na]+) is recorded as 135.4 Å²; in series [1] ([M-H]-), 124.8 Å².
Consider `OC1OC[C@@H](O)[C@H](O)[C@H]1O` (stereo partly drawn) [XYLOSE], for which the “collision cross section (N2)” value in series [1] ([M+Na]+) worked out at 134.9 Å².
